Assays:
[1] = Nomeir et al., Drug Metab Dispos 20(2):198-204, 1992; cited from earlier work
[2] = system: patients suffering from severe disabling atopic dermatitis (AD); test: Test in vivo with atopic dermatitis subjects (SCORAD system); design: species or system human
Description: Experiments were carried out on patients (n=20) of both sexes, of age above 18 years, suffering from severe disabling atopic dermatitis (AD) unresponsive to the current topical treatments.
All patients were subjected to complete blood count and measurements of renal and hepatic functions prior to treatment. Patients who had been systemically treated two months previously with corticoids, antibiotics, psoralenes and other immunosuppressants or with UV were excluded. Patients were supposed not to use any corticoid topically.
Material—A commercially available formulation Triderm Lenil (ICIM International srl, Gallarate, Italy) was used as such (formulation I) or with the addition of 1×10^−2 mol (0.33 g) of Furfuryl palmitate (formulation II).
Triderm Lenil ingredients: aqua, petrolatum, paraffinnum liquidum, dimethicone, laureth-9, C12-C15 alkyl benzoate, soy sterol, phenyl trimethicone, cetearyl alcohol, ribes nigrum, bisabolol, tocopheryl acetate, dimethicone copolyol, capryloyl glycine, glycyrrhetinc acid, superoxide dismutase, phytosphingosine, polyquaternium-7, sodium carbomer, hydroxypropyl guar, disodium EDTA, farnesol, sodium chloride.
Treatment—Out of 20 patients, 10 were included in the furfuryl palmitate-treated group […] and 10 in the control group (formulation I). […] Patients were divided in two groups and treated twice a day for one months either with the Furfuryl palmitate-containing cream or with the placebo cream (control group). Evaluations—The progress of the disease was monitored with the SCORAD system (Dermatology 1993; 186: 23-31) drafted by European Task Force on Atopic Dermatitis (European Society of Pediatric Dermatology, Bordeaux, September 1990) with further modification by Hanifin and Rajka, thus by monitoring 3 criteria: • A) Lesione spread: analysis of surface involvement was performed during the clinical examination by drawing the involved areas on the evaluation sheet, then calculate the proportion of involved surface area segment by segment. For example, if ¾th of the right lower limb is interested by AD, the corresponding score is of about 7/9. • B) Grading of intensity: carried out in a chosen representative area in patients with localized lesions. In patients with areas varying in severity, a representative area of mean involvement is chosen. Dryness should be evaluated in a remote area of non-inflammatory skin. The elementary lesions were classified in the following manifestation: a) Erythema b) Edema/papulation c) Oozing/crusting d) Excoriation e) Lichenification, wherein each item is scored on a scale of 0 to 3, with the total for the intensity criteria is based on a maximum of 18 • C) Subjective signs: by looking at the two most representative items concerning the quality of life of patients during the 3 previous days, i.e. pruritus and insomnia. The patient and/or one of their relatives expresses the intensity of pruritus or insomnia using a visual analog scale graded between 0 and 10.
At the beginning of the treatment, the body area affected by eczema was 69% on the average in all patients. […] At the end of the treatment, the mean scores for itching decreased from 2.3 to 0.6 and for sleep disorders from 7.9 to 1.0. only in the furfuryl palmitate-treated patients.

[3] = at the end of the treatment, 10 patients in the treated group

For O=Cc1ccco1 [furfural], the “toxicity compared with furfuryl alcohol” value [1] is given as “at least twice as toxic as the furfuryl alcohol”.
In the case of CCCCCCCCCCCCCCCC(=O)OCc1ccco1 [furfuryl palmitate, Furfuryl Palmitate], the melting point is reported as 31 to 33 °C, the “mean of the values concerning the different clinical symptoms (SCORAD)” value ([2]; after the first two weeks of treatment, cream with furfuryl palmitate (formulation II) twice a day, decreased from 57.0 (SEM 1.6 n=10) at start) is reported as 21.5 and the “mean score for itching” value ([2]; at the end of the treatment (one month, twice a day), decreased from 2.3) is reported as 0.6. The “mean score for sleep disorders” value ([2]; at the end of the treatment (one month, twice a day), decreased from 7.9) was 1.0, the “number of treated patients with significant improvements of all the considered parameters” value [2, 3] was 8 and the “treated patients with improvement limited to skin scaling” value [2, 3] was “two of them only showed improvements concerning skin scaling”. For the same compound, the “body area affected by eczema” value ([2]; reached during treatment, twice a day for one month, 69% on the average in all patients at the beginning) was 27%.

Source: patent publication US7371396B2, “Dermatological and cosmetic compositions” (Relivia SRL, priority 2001, dated 2008)
